One series concerns the target T1, human TLR8 (Homo sapiens, UniProt Q9NR97).
T1 sequence (Q9NR97 27-1041): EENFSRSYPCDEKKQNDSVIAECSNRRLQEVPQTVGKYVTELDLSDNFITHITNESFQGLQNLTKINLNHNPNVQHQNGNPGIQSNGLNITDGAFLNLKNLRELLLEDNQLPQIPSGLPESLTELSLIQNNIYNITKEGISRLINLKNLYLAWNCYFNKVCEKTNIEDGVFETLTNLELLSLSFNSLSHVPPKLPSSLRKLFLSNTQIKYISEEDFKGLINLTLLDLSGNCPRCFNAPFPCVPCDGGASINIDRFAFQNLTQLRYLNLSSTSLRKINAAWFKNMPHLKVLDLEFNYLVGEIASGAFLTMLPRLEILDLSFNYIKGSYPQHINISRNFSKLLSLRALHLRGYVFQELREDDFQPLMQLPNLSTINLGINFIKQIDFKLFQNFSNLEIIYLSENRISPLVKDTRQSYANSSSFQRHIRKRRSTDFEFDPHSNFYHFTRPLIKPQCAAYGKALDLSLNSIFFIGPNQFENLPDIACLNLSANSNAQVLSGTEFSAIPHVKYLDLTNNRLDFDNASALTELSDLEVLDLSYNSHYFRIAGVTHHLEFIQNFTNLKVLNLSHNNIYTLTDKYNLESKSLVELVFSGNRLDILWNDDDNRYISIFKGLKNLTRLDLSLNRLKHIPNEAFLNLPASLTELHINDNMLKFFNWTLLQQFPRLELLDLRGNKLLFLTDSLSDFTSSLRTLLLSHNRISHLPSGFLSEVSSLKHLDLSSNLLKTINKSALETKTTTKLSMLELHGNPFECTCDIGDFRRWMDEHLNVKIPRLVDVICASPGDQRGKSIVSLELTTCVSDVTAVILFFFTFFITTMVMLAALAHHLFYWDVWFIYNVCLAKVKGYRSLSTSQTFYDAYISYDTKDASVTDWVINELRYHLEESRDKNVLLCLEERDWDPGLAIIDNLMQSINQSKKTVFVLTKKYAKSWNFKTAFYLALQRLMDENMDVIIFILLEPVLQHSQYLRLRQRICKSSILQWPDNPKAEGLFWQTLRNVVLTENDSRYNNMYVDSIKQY
Put plainly: HEK293-Blue-hTLR-8 cells assay (SEAP reporter, R848 stimulation). Particulars: HEK293-Blue-hTLR8 cells, R848 ligand, 20 hrs incubation; read-out: HEK/hTLR8 IC50. The format is cell-based. How it is done:
The following tests were carried out in order to determine the activity of the compounds of formula (I) in HEK293-Blue-hTLR-7/8/9 cells assay.
A stable HEK293-Blue-hTLR-8 cell line was purchased from InvivoGen (Cat.#: hkb-htlr8, San Diego, California, USA). These cells were originally designed for studying the stimulation of human TLR8 by monitoring the activation of NF-κB. A SEAP (secreted embryonic alkaline phosphatase) reporter gene was placed under the control of the IFN-β minimal promoter fused to five NF-κB and AP-1-binding sites. The SEAP was induced by activating NF-κB and. AP-1 via stimulating HEK-Blue hTLR8 cells with TLR8 ligands. Therefore the reporter expression was declined by TLR8 antagonist under the stimulation of a ligand, such as R848, for incubation of 20 hrs. The cell culture supernatant SEAP reporter activity was determined using QUANTI-Blue™ kit (Cat.#: rep-qb1, Invivogen, San Diego, Ca, USA) at a wavelength of 640 nm, a detection medium that tunas purple or blue in the presence of alkaline phosphatase.
HEK293-Blue-hTLR8 cells were incubated at a density of 250,000˜450,000 cells/mL in a volume of 170 μL in a 96-well plate in Dulbecco's Modified Eagle's medium (DMEM) containing 4.5 g/L glucose, 50 U/mL penicillin, […], […], 2 mM L-glutamine, 10% (v/v) heat-inactivated fetal bovine serum with addition of 20 μL test compound in a serial dilution in the presence of final DMSO at 1% and 10 μL of 60 uM R848 in above DMEM, perform incubation under 37° C. in a CO2 incubator for 20 hrs. Then 20 μL of the supernatant from each well was incubated with […] Quanti-blue substrate solution at 37° C. for 2 hrs and the absorbance was read at 620-655 nm using a spectrophotometer. The signalling pathway that TLR8 activation leads to downstream NF-κB activation has been widely accepted, and therefore similar reporter assay was modified for evaluating TLR8 antagonist.

For another series, the target named is T2, CYP2D6 (Homo sapiens, UniProt P10635).
T2 construct: tissue BD-Gentest 452117; host or cells: human liver microsomes
The experiment in a line: CYP inhibition assay in human liver microsome. It counts as in vitro ADME. The note with it: liver microsomes, probe dextromethorphan, 10 μM compound, dextromethorphan substrate, percentage inhibition < 0: not or weak inhibitor, read-out: CYP 2D6 inhibition % @10 μM. As for the experimental part:
This is a high throughput screening assay used for assessment of reversible inhibition of CYP2D6 activity of test compounds in human liver microsome (HLM) in early discovery stage.
10 mM DMSO stock solutions of test compounds were diluted in DMSO to generate 2 mM intermediate stock solution. 250 nL of intermediate stock solution were transferred in duplicate into 3 separate 384 well microtitre plates (assay-ready plates). A mixture of HLM and each substrate was made up. 45 μL of HLM substrate mix was then transferred to each well of an assay ready plate and mixed. The negative (solvent) and positive control (standard inhibitor for CYP 2D6) were included in each assay ready plate. The assay ready plate was warmed to 37° C. in an incubator over 10 minutes. 5μL pre-warmed NADPH regenerating system was added to each incubation well to start the reaction. Final incubation volume was 50 μL. The assay plate then was placed back in the 37° C. incubator. After 10 minutes incubation, incubates were quenched by addition of 50 μL 100% acetonitrile containing internal standards (20 ng/mL D3-Dextrorphan). The supernatants were collected for RapidFire/MS/MS analysis.
RapidFire online solid phase extraction/sample injection system (Agilent) coupled with API4000 triple quadrupole mass spectrometer (AB Sciex) were used for sample analysis. The mobile phase composed of acetonitrile and water supplemented with 0.1% formic acid. A C4 solid phase extraction cartridge is used for sample separation. MS detection is achieved in positive ion MRM mode.
Peak areas for substrate, metabolite and internal standard are determined using the RapidFire integrator software (version 3.6.12009.12296). Peak area ratios (PAR) of metabolite and internal standard (stable-labelled metabolite) are then calculated. The measurement window for each experiment is then defined:
PAR (0% activity)=average PAR for all incubations containing concentrated inhibitor;
Par (100% activity)=average PAR for all incubations containing no inhibitor (DMSO controls);
% Activity (test inhibitor)
=[PAR(test inhibitor)-PAR(0% activity)]/[PAR(100% activity)-PAR(0% activity)];
% Inhibition (test inhibitor)=100-% Activity (test inhibitor).
Background: Liver microsomes are vesicles of endoplasmic reticulum, rich in cytochrome P450 enzymes.

A word on the inhibition: it is the share of the control response that was lost under treatment.

T2 sequence (P10635 whole entry): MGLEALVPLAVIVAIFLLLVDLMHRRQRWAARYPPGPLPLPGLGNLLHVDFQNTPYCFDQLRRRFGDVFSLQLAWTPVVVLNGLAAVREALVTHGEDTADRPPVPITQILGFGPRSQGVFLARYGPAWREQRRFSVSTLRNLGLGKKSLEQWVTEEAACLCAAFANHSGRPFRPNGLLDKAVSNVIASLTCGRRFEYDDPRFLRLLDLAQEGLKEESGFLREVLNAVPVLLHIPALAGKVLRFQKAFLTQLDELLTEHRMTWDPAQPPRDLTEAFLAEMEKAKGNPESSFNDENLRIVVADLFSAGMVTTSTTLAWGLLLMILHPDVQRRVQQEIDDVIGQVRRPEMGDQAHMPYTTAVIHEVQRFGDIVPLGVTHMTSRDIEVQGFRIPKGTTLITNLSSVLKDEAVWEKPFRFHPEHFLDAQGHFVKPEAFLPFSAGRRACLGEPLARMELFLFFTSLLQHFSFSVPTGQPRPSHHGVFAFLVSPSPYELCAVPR

As for `C[C@@H]1CN(c2ccc(C#N)c3ncccc23)C[C@H](C)N1CC(=O)N1Cc2ccc(N3CCNCC3)cc2C1` [Example 16, 5-[(3R,5S)-3,5-Dimethyl-4-[2-oxo-2-(5-piperazin-1-ylisoindolin-2-yl)ethyl]piperazin-1-yl]quinoline-8-carbonitrile], the IC50 on human TLR8 was 55 nM. For the same compound, on CYP2D6, the inhibition at 10 min, 10 µM came to 2%.

`CC1CN(c2ccc(C#N)c3ncccc23)CCN1CC(=O)Nc1ccc(N2CCNCC2)cc1` (centres unmarked) [Example 17, 2-[4-(8-Cyano-5-quinolyl)-2-methyl-piperazin-1-yl]-N-(4-piperazin-1-ylpheny)acetamide]: on human TLR8, the IC50 turned out to be 58 nM. In addition, on CYP2D6, the inhibition at 10 min, 10 µM amounted to 7%.

Consider `CC1CN(c2ccc(C#N)c3ncccc23)CCN1CC(=O)Nc1ccc2c(c1)CCNC2` (centres unmarked) [Example 18, 2-[4-(8-Cyano-5-quinolyl)-2-methyl-piperazin-1yl]-N-(1,2,3,4-tetrahydroisoquinolin-6-yl)acetamide], for which the IC50 at human TLR8 is 40 nM. Besides, on CYP2D6, the inhibition at 10 min, 10 µM is 12.5%.

`CC1CN(c2ccc(C#N)c3ncccc23)CCN1CC(=O)N1CCC(C2CCN(C)CC2)CC1` (centres unmarked) [Example 19, 5-[3-methyl-4-[2-[4-(1-methyl-4-piperidyl)-1-piperidyl]-2-oxo-ethyl]piperazin-1-yl]quinoline-8-carbonitrile]: on human TLR8, the IC50 was 93 nM. On CYP2D6, the inhibition at 10 min, 10 µM turned out to be 14.5%.
